# Experimental data from patent US20250368699A1, “ARTHROPOD CHEMOSENSORY RECEPTORS AND USES THEREOF” (Firmenich Incorporated, priority 2022, published 2025).
# Read-outs that look alike come from different tables or passages of the source.
# Biological target: AaORCO+AaOR8 receptors (Aedes aegypti, UniProt A0A1S4FVR6)
# Assay: Automatic planar patch-clamp electrophysiology in U2OS cells co-transduced with AaORCO and AaOR8
# Assay type: cell-based
# Experimental: In this example, U2OS cells were co-transduced with AaORCO and AaOR8 channel subunits overnight and stimulated with increasing concentrations of 1-octen-3-ol ligand in the absence and presence of 10 μM VUAA1.
# Cell culture and transduction. U2OS and HEK293 cells were grown on T150 flasks with Dulbecco's modified eagle medium supplemented with 10% fetal bovine serum and 1% Penicillin/Streptomycin in a 37° C. incubator under a 5% CO2 atmosphere. For transductions, cell cultures were pooled at 1.5×10^6 cell/ml, centrifuged at 1000 xg for 5 min, and resuspended in fresh medium. Resuspended cultures were inoculated at a multiplicity of 1-20 pfu/cell with baculovirus encoding AaORCO or AaORCO with AaOR8, AaOR2 or AaOR11 and AgORCO with AgOR8 or AgOR2. A further untransduced culture was used as a control. Cultures were maintained in an incubator at 37° C. and used for electrophysiology or FLIPR measurements 1-4 days after infection.
# Planar Patch Clamp Electrophysiology Assay. […] On the day of the assay, the cells were lifted, washed once in PBS and loaded on a Nanion Synchropatch384 instrument and currents were recorded using voltage clamp in standard whole-cell configuration at-90 mV on an 8-hole version chip (NPC-384T).
# AaORCO+AaOR8 receptors, sequence (Q178U6 whole entry): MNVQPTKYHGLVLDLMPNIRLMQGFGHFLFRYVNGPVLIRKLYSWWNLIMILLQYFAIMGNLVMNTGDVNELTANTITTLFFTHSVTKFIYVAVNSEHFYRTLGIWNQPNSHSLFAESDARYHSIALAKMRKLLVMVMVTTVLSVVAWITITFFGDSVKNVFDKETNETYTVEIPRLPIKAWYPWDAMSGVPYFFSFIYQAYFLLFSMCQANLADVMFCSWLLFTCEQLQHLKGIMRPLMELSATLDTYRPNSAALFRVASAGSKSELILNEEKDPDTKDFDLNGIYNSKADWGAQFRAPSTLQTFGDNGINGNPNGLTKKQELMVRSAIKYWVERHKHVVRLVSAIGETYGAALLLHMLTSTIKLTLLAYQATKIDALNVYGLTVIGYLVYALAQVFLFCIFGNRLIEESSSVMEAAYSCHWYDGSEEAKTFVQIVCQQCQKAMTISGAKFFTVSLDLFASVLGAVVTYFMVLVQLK
# AaORCO+AaOR8 receptors, sequence (A0A1S4FVR6 entry or part of it): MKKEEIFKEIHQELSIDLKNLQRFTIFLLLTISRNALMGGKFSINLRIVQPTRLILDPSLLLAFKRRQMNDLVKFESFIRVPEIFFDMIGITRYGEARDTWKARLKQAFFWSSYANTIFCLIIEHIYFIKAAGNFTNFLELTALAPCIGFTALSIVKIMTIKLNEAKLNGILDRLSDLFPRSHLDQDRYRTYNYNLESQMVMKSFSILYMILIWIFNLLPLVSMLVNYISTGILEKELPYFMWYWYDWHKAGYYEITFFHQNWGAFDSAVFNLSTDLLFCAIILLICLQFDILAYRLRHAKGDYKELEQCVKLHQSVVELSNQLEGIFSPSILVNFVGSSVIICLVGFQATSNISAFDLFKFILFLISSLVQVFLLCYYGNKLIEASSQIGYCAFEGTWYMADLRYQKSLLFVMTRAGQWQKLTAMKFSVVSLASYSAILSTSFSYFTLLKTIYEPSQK
smiles,measurement,setting,value
C=CC(O)CCCCC (centres unmarked) [1-octen-3-ol],EC50,"absence of VUAA1, read-out: EC50, dose-dependent activation of AaORCO+AaOR8 channel currents",537 nM
same,EC50,"presence of 10 μM VUAA1, read-out: EC50, activation of AaORCO+AaOR8 channel currents in the presence of VUAA1 (left-shift)",101 nM
